From ChEMBL document CHEMBL1201862, “PubChem BioAssay data set” (2004)
The source made the active and inactive calls.

What was measured:
Albumin = Albumin (Bos taurus, UniProt P02769); experiment: Counterscreen for inhibitors of T-cell receptor (TCR)-CD3 interaction: Fluorescence-based biochemical high throughput dose response assay to identify inhibitors of T-cell receptor (TCR)-CD3 interaction using a TAMRA-labeled BSA probe.; assay type: functional
[1] = fluconazole-exposed Candida albicans growth modulators – fluorescence, retest, confirmation (AID 2467); assay type: functional, cell-based
[2] = NIH-3T3 fibroblast cytotoxicity, dose response, cytotoxicity control, cell-based, fluorescence, Alamar Blue, secondary assay (AID 2327); assay type: functional;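 also: NIH-3T3 mouse fibroblasts cultured with fluconazole at 8 µg/mL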
[3] = molecular target: T1, Fructose-bisphosphate aldolase (Mycobacterium tuberculosis, UniProt P9WQA3); experiment: Fluorescence-based biochemical high throughput dose response assay for inhibitors of the fructose-bisphosphate aldolase (FBA) of M. tuberculosis.; assay type: functional
T1 sequence (P9WQA3 whole entry): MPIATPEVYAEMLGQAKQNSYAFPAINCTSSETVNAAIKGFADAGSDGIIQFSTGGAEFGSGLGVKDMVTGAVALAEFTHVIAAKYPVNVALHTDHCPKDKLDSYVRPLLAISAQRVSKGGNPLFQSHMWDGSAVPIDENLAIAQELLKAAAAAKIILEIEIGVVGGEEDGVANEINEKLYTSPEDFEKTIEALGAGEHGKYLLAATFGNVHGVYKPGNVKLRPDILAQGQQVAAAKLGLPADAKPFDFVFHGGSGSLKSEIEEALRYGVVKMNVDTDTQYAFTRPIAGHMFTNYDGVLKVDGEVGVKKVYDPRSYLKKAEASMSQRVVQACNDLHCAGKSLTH

[4] = molecular target: T2, Long-chain-fatty-acid--AMP ligase FadD28 (Mycobacterium tuberculosis, UniProt P9WQ59); experiment: Fluorescence polarization aasay to screen for inhibitors that compete for the binding of FadD28 to a bisubstrate Measured in Biochemical System Using Plate Reader - 2147-01_Inhibitor_Dose_CherryPick_Activity.; assay type: functional, Mycobacterium tuberculosis H37Rv
T2 sequence (P9WQ59 whole entry): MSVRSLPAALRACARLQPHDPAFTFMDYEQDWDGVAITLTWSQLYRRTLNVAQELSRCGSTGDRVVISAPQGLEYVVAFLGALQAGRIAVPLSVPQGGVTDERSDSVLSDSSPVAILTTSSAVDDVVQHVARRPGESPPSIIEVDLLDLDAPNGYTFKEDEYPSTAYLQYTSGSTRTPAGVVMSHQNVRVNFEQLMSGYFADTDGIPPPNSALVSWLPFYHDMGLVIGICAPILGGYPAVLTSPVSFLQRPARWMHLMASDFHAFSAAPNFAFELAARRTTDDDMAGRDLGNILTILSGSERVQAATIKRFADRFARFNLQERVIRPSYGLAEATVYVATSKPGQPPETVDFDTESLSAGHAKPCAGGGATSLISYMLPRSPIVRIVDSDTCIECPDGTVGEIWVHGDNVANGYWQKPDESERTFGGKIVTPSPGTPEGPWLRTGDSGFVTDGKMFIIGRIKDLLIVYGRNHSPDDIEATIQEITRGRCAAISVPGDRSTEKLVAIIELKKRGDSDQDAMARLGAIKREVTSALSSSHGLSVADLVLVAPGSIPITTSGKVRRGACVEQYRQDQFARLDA

[5] = molecular target: 5-hydroxytryptamine receptor 2A (Mus musculus, UniProt P35363); assay type: functional, cell-based;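 also: CHO-K1 cells with tagged receptor and beta-arrestin; agonist potency measured as compound-induced activation of the receptor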
5-hydroxytryptamine receptor 2A, sequence (P35363 whole entry): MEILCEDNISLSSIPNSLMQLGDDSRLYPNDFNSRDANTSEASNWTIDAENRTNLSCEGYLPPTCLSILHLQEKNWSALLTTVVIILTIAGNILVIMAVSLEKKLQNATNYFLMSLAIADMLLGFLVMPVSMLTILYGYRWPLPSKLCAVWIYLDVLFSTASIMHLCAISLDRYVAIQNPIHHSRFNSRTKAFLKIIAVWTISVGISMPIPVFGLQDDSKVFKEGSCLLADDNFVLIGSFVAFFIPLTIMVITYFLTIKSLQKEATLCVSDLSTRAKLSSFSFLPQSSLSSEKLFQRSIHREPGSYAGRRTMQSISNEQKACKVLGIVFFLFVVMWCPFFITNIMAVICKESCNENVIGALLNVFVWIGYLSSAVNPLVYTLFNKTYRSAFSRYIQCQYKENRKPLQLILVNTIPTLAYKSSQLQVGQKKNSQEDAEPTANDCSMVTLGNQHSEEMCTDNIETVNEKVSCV

Mu-type opioid receptor = Mu-type opioid receptor (Homo sapiens, UniProt P35372); assay type: functional, cell-based;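 also: U2OS cells with beta-arrestin recruitment to OPRM1 by beta-gal complementation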
Mu-type opioid receptor, sequence (P35372 whole entry): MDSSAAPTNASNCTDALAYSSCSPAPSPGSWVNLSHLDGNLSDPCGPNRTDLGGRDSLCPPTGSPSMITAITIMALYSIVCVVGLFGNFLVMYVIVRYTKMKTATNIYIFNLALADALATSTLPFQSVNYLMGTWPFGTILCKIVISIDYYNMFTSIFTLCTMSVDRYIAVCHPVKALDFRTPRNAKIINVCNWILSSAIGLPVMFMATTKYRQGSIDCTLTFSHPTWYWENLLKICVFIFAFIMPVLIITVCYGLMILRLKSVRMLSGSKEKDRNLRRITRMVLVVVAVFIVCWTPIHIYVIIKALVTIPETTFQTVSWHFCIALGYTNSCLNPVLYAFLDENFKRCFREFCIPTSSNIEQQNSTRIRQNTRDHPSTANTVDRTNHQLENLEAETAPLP

[6] = viability loss in HeLa cells – cytotoxicity control for MgcRacGAP inhibitor project, dose response (AID 624300); assay type: functional
[7] = molecular target: T3, DNA repair and recombination protein RAD54-like (Homo sapiens, UniProt Q92698); experiment: RAD54 Holliday junction migration blockers – biochemical, fluorescence, cherry-picked samples, dose series, confirmation (AID 651657); assay type: functional
T3 sequence (Q92698 whole entry): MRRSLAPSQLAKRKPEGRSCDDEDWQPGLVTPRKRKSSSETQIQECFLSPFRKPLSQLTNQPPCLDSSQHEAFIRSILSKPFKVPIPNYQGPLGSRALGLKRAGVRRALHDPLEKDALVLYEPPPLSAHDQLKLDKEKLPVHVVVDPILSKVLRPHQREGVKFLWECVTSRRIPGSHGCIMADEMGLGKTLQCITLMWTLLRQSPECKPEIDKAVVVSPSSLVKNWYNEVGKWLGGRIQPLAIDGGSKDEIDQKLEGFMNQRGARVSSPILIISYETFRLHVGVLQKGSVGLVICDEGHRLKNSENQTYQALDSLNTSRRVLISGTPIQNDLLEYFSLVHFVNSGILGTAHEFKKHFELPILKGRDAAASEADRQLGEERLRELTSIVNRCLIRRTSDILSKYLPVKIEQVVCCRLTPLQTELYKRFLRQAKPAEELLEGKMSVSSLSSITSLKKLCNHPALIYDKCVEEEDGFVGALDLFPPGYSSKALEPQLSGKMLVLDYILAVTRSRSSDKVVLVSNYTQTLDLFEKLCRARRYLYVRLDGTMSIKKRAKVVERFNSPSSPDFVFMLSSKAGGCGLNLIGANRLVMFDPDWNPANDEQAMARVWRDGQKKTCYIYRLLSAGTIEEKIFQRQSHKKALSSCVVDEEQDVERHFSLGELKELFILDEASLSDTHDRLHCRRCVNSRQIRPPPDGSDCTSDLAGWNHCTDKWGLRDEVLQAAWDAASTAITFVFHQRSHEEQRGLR

Large T antigen = Large T antigen (Simian virus 40, UniProt P03070); assay type: functional, Betapolyomavirus macacae;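 also: Confirmatory-stage PubChem screen for compounds that inhibit SV40 T antigen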
Large T antigen, sequence (P03070 whole entry): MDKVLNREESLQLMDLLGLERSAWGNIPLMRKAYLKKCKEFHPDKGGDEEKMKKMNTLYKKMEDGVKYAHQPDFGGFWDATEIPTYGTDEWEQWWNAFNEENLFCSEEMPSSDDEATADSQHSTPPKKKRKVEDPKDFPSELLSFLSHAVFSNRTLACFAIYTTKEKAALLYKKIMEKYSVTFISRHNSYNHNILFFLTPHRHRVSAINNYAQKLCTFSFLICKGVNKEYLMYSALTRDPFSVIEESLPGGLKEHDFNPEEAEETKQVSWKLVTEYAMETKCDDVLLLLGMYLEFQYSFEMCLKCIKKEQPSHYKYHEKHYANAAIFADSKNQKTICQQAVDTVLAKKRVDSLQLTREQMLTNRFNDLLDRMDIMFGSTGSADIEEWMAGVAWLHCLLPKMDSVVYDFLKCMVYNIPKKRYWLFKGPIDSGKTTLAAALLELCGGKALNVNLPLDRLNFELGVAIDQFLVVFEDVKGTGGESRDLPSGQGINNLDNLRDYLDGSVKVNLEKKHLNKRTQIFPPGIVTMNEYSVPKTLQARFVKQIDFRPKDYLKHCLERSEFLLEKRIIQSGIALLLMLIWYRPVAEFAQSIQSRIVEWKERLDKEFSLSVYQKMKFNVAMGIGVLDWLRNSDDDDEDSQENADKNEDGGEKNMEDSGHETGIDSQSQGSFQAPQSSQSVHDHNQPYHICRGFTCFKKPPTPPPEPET

[8] = molecular target: T4, Rac GTPase-activating protein 1 (Homo sapiens, UniProt Q9H0H5); experiment: blockers of MgcRacGAP-driven Rac1 GTP hydrolysis – biochemical, ADP Hunter fluorescence, primary and confirmatory, confirmation (AID 624330); assay type: functional
T4 sequence (Q9H0H5 whole entry): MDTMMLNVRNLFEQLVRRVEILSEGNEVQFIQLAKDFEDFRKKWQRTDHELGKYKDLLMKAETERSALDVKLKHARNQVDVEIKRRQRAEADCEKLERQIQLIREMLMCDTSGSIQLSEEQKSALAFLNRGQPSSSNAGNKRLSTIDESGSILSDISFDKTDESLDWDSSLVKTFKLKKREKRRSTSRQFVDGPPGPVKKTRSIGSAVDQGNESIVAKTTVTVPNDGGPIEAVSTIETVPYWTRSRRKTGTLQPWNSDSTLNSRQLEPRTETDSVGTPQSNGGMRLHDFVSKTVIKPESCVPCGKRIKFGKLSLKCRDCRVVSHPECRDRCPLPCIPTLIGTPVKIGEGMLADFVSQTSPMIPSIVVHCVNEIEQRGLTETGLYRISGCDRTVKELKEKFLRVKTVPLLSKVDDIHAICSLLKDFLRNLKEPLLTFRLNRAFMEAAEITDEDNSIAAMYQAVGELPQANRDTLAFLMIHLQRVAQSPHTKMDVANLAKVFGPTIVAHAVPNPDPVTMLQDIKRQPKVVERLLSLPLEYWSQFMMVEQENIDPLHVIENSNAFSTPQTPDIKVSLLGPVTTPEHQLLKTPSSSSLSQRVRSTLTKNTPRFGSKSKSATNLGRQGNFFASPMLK

[9] = molecular target: Luciferin 4-monooxygenase (Photinus pyralis, UniProt P08659); experiment: inhibition of purified Photinus pyralis luciferase – biochemical, luminescence, dose response (AID 1891)
Luciferin 4-monooxygenase, sequence (P08659 whole entry): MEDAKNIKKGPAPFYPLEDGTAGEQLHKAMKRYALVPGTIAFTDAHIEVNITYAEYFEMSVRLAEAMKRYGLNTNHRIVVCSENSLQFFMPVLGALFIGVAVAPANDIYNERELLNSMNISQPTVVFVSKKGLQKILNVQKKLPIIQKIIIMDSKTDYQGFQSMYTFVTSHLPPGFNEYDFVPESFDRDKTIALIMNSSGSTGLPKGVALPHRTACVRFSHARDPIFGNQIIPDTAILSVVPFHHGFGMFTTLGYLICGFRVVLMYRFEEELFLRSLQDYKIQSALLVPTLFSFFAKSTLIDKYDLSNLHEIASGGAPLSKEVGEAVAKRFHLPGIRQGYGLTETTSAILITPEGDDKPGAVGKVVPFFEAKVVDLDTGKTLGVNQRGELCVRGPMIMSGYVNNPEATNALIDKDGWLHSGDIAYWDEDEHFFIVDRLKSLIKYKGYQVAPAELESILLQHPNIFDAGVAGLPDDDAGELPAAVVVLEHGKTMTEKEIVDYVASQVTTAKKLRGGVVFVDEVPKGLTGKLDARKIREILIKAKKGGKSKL

[10] = Luminescence Cell-Based Dose Confirmation HTS to Identify Inhibitors of Platelet Dense Granule Release. [Related pubchem assays: 1663 (Primary HTS), 1678 (Summary of Project)]; assay type: functional
[11] = activation of miR-122 Renilla sensor silencing – cell-based, Huh7 psiCHECK-miR122, Renilla luciferase, cherry-picked, dose response (AID 651956); assay type: functional;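 also: huh7 hepatoma cells stably carrying a psiCHECK-2 miR-122 sensor plasmid; renilla luciferase signal reporting endogenous miR-122 activity after 48 h compound exposure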

Albumin, sequence (P02769 whole entry): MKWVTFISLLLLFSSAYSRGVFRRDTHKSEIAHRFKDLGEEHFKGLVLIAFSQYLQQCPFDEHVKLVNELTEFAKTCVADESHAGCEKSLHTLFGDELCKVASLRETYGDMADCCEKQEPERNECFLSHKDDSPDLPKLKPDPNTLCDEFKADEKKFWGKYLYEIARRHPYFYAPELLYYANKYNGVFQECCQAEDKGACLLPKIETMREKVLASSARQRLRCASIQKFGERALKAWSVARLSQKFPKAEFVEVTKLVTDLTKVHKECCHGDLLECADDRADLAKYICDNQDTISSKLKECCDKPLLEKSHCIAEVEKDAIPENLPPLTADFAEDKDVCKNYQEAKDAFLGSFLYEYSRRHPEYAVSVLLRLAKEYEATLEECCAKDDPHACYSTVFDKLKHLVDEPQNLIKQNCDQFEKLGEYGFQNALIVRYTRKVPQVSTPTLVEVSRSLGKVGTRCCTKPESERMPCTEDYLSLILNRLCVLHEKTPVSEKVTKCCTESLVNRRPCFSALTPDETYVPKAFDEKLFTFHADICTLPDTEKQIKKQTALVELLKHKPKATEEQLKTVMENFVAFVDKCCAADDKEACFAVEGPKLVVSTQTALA

Question: With CCOc1ccc(NC(=O)NNC(=O)c2ccc3ccccc3c2O)cc1 as the compound, how does the IC50 (Albumin) read?
Answer: > 94.1 µM (inactive)

Question: What about the EC50 [1] of the same compound?
Answer: 2.58 µM (active)

Question: What about the EC50 [2] of the same compound?
Answer: > 150 µM (inactive)

Question: And the IC50 [3]?
Answer: 3.15 µM (active)

Question: Which AC50 [4] does the source give for CN(C)S(=O)(=O)c1cccc(NC(=O)CCc2c[nH]c3ccccc23)c1 here?
Answer: 97.9 µM (active)

Question: Which IC50 (Albumin) does the source give for CC(=O)NC(CC(=O)NNC(=O)c1cc2ccccc2cc1O)c1ccccc1 (stereo not drawn) here?
Answer: > 94.1 µM (inactive)

Question: And the EC50 [1]?
Answer: > 38 µM (not active)

Question: And the EC50 [2]?
Answer: > 160 µM (inactive)

Question: For Cc1nc(-c2nc(-c3c(C(=O)NNC(=O)Nc4cccc(Cl)c4)noc3C)cs2)cs1, which EC50 [5] is on record?
Answer: 6.23 µM (active)

Question: And the EC50 (Mu-type opioid receptor)?
Answer: 92.5 µM (inactive)

Question: With CNC(=O)Oc1ccc(-c2cn3cc(C)ccc3n2)cc1 as the compound, how does the CC50 [6] read?
Answer: 100 µM (active)

Question: Which EC50 [5] does the source give for Cc1cccc(N2CCN(CC(O)COc3ccc4ccccc4c3)CC2)c1 (stereo not drawn) here?
Answer: 76 µM (inactive)

Question: What about the EC50 (Mu-type opioid receptor) of the same compound?
Answer: 92.4 µM (inactive)

Question: Which AC50 [7] does the source give for CN1CCN(c2ccc(CNC(=O)C3Cc4c(-c5ccc(Cl)cc5)ccnc4O3)cc2)CC1 (stereo not drawn) here?
Answer: 72.1 µM (active)

Question: Which results are given for COc1cc(/C=N/Nc2nncn2/N=C/c2ccc(O)c(OC)c2)ccc1O?
Answer: IC50 (Large T antigen): 12.9 µM (active); CC50 [6]: 10.7 µM (active); IC50 [8]: 43.6 µM (active); EC50 [9]: 0.658 µM (active); EC50 [10]: 2.63 µM (active)

Question: With CN(C)C(=O)c1ccc(-c2ccc([C@H]3[C@@H](CO)N4CCCCN(C(=O)C5CCCC5)C[C@@H]34)cc2)cc1 as the compound, how does the AC50 [11] read?
Answer: 49 µM (active)

Question: Which AC50 [11] does the source give for CC(C)CC#Cc1ccc2c(c1)O[C@H](CN(C)C(=O)c1cnccn1)[C@H](C)CN([C@@H](C)CO)S2(=O)=O here?
Answer: 10.5 µM (active)

Question: Which EC50 [5] does the source give for COc1cccc(OC)c1OCCN1CCN(C(=O)c2ccco2)CC1 here?
Answer: 3.12 µM (active)

Question: And the EC50 (Mu-type opioid receptor)?
Answer: 92.4 µM (inactive)
